# Experimental data as given in patent US20160278376A1 (priority 2013, published 2016).
# Read-outs that look alike come from different tables or passages of the source.
# Legend:
# [1] = system: Swingle rootstocks and sweet orange; assay: Phytotoxicity of foliar spray / leaf painting on citrus; assay type: in vivo
# Excerpt: To test the phytoxicity of cinnamaldehyde or carvacrol in 70% ethanol, and 70% ethanol alone on citrus plants, we applied 1% (w/v) and 10% (w/v) cinnamaldehyde or carvacrol (each dissolved in 70% ethanol) on Swingle rootstocks (˜6 inches to 1 foot tall) by spraying to the point of run-off of the spray and also sweet orange (˜3 foot tall) by painting one or both sides of a portion of the leaf surface. We also applied 70% ethanol as control in these two methods.
# [2] = system: L. crescens strain BT-1 (Lcr); assay type: cell-based, Liberibacter crescens; settings: 5 days
# Swingle rootstocks = assay: Phytotoxicity of soil drench on citrus; assay type: in vivo
# Excerpt: To further test the phytoxicity of cinnamaldehyde or carvacrol in 70% ethanol, and 70% ethanol alone on citrus plants, we applied 1% and 10% cinnamaldehyde or carvacrol (each dissolved in 70% ethanol) on Swingle rootstocks (˜6 inches to 1 foot tall) by adding sufficient liquid to soil of potted citrus to the point of run-off of the drench. We also applied 70% ethanol as control in these two methods.
# [3] = system: E. coli Stratagene strain “Solopack”; assay: Paper disc inhibition assay on E. coli lawn; assay type: cell-based; settings: 20 μl drops without dilution (100% strength) on 6 mm discs; 24 hrs
# Excerpt: FIG. 1. Effect of Carvacrol, Cinnamaldehyde and Geraniol against E. coli cells. Twenty microliter drops of three chemicals (at 100% strength) were placed on paper assay discs on top of E. coli lawn. Control disc included a solution of 70% ethanol without any added essential oil. Dotted line circles indicate zone of inhibition. Photo taken at 24 hrs after plating.
# The essential oils cinnamadehyde (Aldrich, W228605; ≧98% purity), carvacrol (Aldrich, W224502; ≧98% purity) and geraniol (Aldrich, 163333; 98% purity) were purchased Sigma-Aldrich (St. Louis, Mo.). A single colony of E. coli Stratagene strain “Solopack” was inoculated in 5 ml of Luria Broth (LB) liquid medium with shaking at 37° C. overnight. Two hundred μl of the E. coli overnight cultures were placed on an LB agar plate, and spread evenly with glass beads. The bacterial culture was allowed to absorb into the LB medium. Within 30 min after absorption, 20 μl drops of the three essential oils (cinnamaldehyde, carvacrol or geraniol) were separately placed without dilution on 6 mm discs (Whatman, Cat No. 2017-006; GE healthcare Life Science) and the treated disks were placed on top of the plates with E. coli. The plates were then incubated for 24 hrs. Photos were taken at 24 hrs after plating (see FIG. 1). Experiments were repeated, with the same results.
# Las [4] = assay type: in vivo; settings: 1% (w/v) in 70% ethanol, foliar spray to run off; 1-2 weeks later, remained positive for at least several months; positive = Ct ≤ 35
# Las [5] = assay type: in vivo
# [6] = system: Hamlin sweet orange trees grafted onto Swingle rootstock; settings: in vivo
# Las [7] = assay type: in vivo; settings: 1.5% (w/v) in 100% DMSO
# Lcr = assay: microbe, parasite or virus in culture; assay type: cell-based; settings: Liberibacter crescens, read-out: Minimum Inhibitory Concentration (MIC)
# [8] = 1% (w/v) in 70% ethanol, sprayed to run-off on Swingle rootstocks, painted on sweet orange leaves, carvacrol effect observable by 24 hours
# [9] = 20 μl at 2 mg/ml in 70% ethanol on 6 mm discs
# [10] = 1% in 70% ethanol (carvacrol: 8 mg/ml (1%), observable by 60 hrs), potted Swingle rootstocks
# [11] = 10% w/v in 70% ethanol, chlorosis and leaf curling, but not defoliation
SMILES,"phytotoxicity to citrus, foliar application [1, 8]","inhibition of the growth of Lcr (zone of inhibition) [2, 9]","phytotoxicity to citrus, soil drench (Swingle rootstocks; [10])",inhibition of the growth of E. coli (zone of inhibition) [3],inhibition of the growth of Lcr (zone of inhibition) ([2]; 20 μl of two-fold dilutions 2 mg/ml to 0.125 mg/ml in 70% ethanol on 6 mm discs),qPCR test for Las after treatment (Las [4]),"PCR test for Las (Las [5]; 0.3% in 50% DMSO, foliar spray to run off)","PCR test for Las in new shoots (Las [5]; 1.5% in 50% DMSO, foliar spray to run off, first tests about 3 weeks after defoliation)","outcome of weekly qPCR tests for Las over nine months (Las [5]; 1.5% in 50% DMSO, foliar spray, no detectable Liberibacter infection and no citrus greening symptoms)","phytotoxicity to citrus, foliar application [1, 11]",effect on foliage of treated trees [6],"PCR test for Las in new shoots (Las [7]; 2 x 20 ml trunk injection, first tests about 3 weeks after defoliation)","weekly PCR tests for Las over 9 months (Las [7]; trunk injection, thus cured)",level down to which inhibitory to Lcr in the disc tests ([2]; two-fold serial dilutions in 70% ethanol on 6 mm discs),"phytotoxicity to citrus, soil drench (Swingle rootstocks; [11])",MIC (Lcr)
"Cc1ccc(C(C)C)cc1O [carvacrol, reference compound]",highly phytotoxic,slight inhibition,highly phytotoxic,more inhibitory than cinnamaldehyde,–,–,–,–,–,–,–,–,–,–,–,–
"CC(C)=CCC/C(C)=C/CO [geraniol, reference compound]",–,–,–,inhibitory,not inhibitory,–,–,–,–,–,–,–,–,–,–,–
O=C/C=C/c1ccccc1 [cinnamaldehyde],not at all phytotoxic,strong inhibition,not at all phytotoxic,more inhibitory than geraniol,–,qPCR positive,remained infected,completely Las negative,cured,moderately phytotoxic,completely defoliated,completely negative,remained completely PCR negative,1 mg/mL,moderately phytotoxic,5 µg/mL
